{
  "source": "patent US12539292B2",
  "about": "“BRM targeting compounds and associated methods of use” (Arvinas Operations, Inc., priority 2018, dated 2026)",
  "target": "T1, BRM (Homo sapiens, UniProt P51531)",
  "T1 construct": "In-Cell Western Screen of BRM Degradation in SW1573 Cells; endogenous in cells; host or cells: SW1573",
  "T1 sequence (P51531 whole entry)": "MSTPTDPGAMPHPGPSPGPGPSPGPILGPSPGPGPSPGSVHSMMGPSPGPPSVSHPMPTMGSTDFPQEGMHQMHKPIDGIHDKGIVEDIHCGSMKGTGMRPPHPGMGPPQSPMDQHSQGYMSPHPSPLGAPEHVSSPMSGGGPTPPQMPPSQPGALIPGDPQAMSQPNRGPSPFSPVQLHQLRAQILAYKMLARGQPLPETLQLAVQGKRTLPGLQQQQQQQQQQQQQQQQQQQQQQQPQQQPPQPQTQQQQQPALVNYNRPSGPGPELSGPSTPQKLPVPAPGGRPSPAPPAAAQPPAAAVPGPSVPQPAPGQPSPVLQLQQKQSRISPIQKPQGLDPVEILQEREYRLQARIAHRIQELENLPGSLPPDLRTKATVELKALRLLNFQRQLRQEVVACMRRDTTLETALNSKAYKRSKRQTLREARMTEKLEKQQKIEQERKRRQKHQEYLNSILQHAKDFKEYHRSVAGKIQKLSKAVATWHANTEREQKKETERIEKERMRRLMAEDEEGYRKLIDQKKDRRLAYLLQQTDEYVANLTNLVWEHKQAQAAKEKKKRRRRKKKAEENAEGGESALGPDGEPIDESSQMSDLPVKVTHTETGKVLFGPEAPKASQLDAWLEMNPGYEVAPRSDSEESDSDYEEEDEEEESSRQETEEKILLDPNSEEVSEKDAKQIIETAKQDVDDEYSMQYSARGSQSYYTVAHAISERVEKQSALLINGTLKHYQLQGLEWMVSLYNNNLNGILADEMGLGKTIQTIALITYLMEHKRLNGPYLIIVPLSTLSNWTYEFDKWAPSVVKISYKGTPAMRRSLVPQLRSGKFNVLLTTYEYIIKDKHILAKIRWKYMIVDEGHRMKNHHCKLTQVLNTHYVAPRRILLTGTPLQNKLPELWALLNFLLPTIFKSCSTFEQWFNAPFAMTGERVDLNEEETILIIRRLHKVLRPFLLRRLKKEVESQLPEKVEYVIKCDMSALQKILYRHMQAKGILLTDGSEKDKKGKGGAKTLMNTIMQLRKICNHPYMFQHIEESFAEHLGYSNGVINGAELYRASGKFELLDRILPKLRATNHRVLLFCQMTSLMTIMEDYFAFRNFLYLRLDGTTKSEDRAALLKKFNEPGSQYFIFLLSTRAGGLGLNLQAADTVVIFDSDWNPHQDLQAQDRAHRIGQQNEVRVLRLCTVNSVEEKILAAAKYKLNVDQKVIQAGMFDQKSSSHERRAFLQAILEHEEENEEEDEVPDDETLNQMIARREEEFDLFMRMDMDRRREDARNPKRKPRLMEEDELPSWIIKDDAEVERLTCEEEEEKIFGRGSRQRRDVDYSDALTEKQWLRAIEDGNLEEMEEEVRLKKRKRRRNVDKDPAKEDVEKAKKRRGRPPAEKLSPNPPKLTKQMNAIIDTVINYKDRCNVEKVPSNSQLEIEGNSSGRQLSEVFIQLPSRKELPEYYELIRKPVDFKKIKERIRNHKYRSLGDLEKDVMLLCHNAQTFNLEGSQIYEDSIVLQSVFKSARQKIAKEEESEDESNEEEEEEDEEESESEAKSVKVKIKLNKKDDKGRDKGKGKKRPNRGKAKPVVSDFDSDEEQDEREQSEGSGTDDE",
  "assay": "In-cell Western screen of BRM degradation in SW1573 cells (Dmax and DC50)",
  "type": "cell-based",
  "method_in_brief": "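Near-infrared imaging on a LI-COR Odyssey (800 and 680 nm channels) quantifies BRM remaining in fixed SW1573 cells. Cells are dosed for 18-20 h at 0.1% final DMSO, and degradation is expressed as Dmax and DC50.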",
  "key": {"[1]": {"settings": "degradation of BRM, read-out: BRM DC50"}, "[2]": {"settings": "target protein degradation, read-out: BRM DC50"}, "[3]": {"settings": "SW1573, % degraded, when tested at the top concentration of between 0.3 and 10 μM, read-out: BRM Dmax (%)"}, "[4]": {"settings": "BRM degradation, SW1573 cells, read-out: DC50"}, "[5]": {"settings": "BRM degradation, SW1573 cells, when tested at the top concentration of between 0.3 and 10 μM, read-out: Dmax (%) (% degraded)"}, "[6]": {"settings": "BRM degradation, SW1573 cells, read-out: Dmax (% degraded)"}},
  "note": "Like-named read-outs stand apart in the source and are kept apart here.",
  "data": [
    {"smiles": "Cc1ncsc1-c1ccc([C@H](C)NC(=O)[C@@H]2C[C@@H](O)CN2C(=O)[C@H](c2cc(OCC(F)(F)CN3CCC(O[C@H]4C[C@H](Oc5cc(N6C7CCC6CN(c6cc(-c8ccccc8O)nnc6N)C7)ccn5)C4)CC3)no2)C(C)C)cn1", "note": "[compound 421, (2S,4R)-1-((2S)-2-(3-(3-(4-((1r,3S)-3-((4-(3-(3-amino-6-(2-hydroxyphenyl)pyridazin-4-yl)-3,8-diazabicyclo[3.2.1]octan-8-yl)pyridin-2-yl)oxy)cyclobutoxy)piperidin-1-yl)-2,2-difluoropropoxy)isoxazol-5-yl)-3-methylbutanoyl)-4-hydroxy-N-((S)-1-(6-(4-methylthiazol-5-yl)pyridin-3-yl)ethyl)pyrrolidine-2-carboxamide]", "values": [
      {"measurement": "DC50", "setting": "[1]", "value": "> 30", "unit": "nM"}
    ]},
    {"smiles": "Cc1nccn1-c1ccc([C@H](C)NC(=O)[C@@H]2C[C@@H](O)CN2C(=O)[C@H](c2cc(OCCN3CCC(O[C@H]4C[C@H](Oc5cc(N6C7CCC6CN(c6cc(-c8ccccc8O)nnc6N)C7)ccn5)C4)CC3)no2)C(C)C)cn1", "note": "[compound 397, (2S,4R)-1-((2S)-2-(3-(2-(4-((1r,3S)-3-((4-(3-(3-amino-6-(2-hydroxyphenyl)pyridazin-4-yl)-3,8-diazabicyclo[3.2.1]octan-8-yl)pyridin-2-yl)oxy)cyclobutoxy)piperidin-1-yl)cthoxy)isoxazol-5-yl)-3-methylbutanoyl)-4-hydroxy-N-((S)-1-(6-(2-methyl-1H-imidazol-1-yl)pyridin-3-yl)ethyl)pyrrolidine-2-carboxamide]", "values": [
      {"measurement": "DC50", "setting": "[2]", "value": "> 30", "unit": "nM"}
    ]},
    {"smiles": "Cc1ncsc1-c1ccc([C@H](C)NC(=O)[C@@H]2C[C@@H](O)CN2C(=O)[C@H](c2cc(OCCN3CCC(O[C@H]4C[C@H](Oc5cc(N6C7CCC6CN(c6cc(-c8ccccc8O)nnc6N)C7)ccn5)C4)CC3)no2)C(C)C)nc1", "note": "[compound 367, (2S,4R)-1-((2S)-2-(3-(2-(4-((1r,3S)-3-((4-(3-(3-amino-6-(2-hydroxyphenyl)pyridazin-4-yl)-3,8-diazabicyclo[3.2.1]octan-8-yl)pyridin-2-yl)oxy)cyclobutoxy)piperidin-1-yl)ethoxy)isoxazol-5-yl)-3-methylbutanoyl)-4-hydroxy-N-((S)-1-(5-(4-methylthiazol-5-yl)pyridin-2-yl)ethyl)pyrrolidine-2-carboxamide]", "values": [
      {"measurement": "Dmax", "setting": "[3]", "value": "> 75", "unit": "%"},
      {"measurement": "DC50", "setting": "[2]", "value": "> 30", "unit": "nM"}
    ]},
    {"smiles": "Cc1ncsc1-c1ccc([C@H](C)NC(=O)[C@@H]2C[C@@H](O)CN2C(=O)[C@@H](c2cc(OCCN3CCN(CCOc4cc(N5C6CCC5CN(c5cc(-c7ccccc7O)nnc5N)C6)ccn4)[C@@H](C)C3)no2)C(C)C)cc1", "note": "[compound 140, (2S,4R)-1-((2R)-2-(3-(2-((3S)-4-(2-((4-(3-(3-amino-6-(2-hydroxyphenyl)pyridazin-4-yl)-3,8-diazabicyclo[3.2.1]octan-8-yl)pyridin-2-yl)oxy)ethyl)-3-methylpiperazin-1-yl)ethoxy)isoxazol-5-yl)-3-methylbutanoyl)-4-hydroxy-N-((S)-1-(4-(4-methylthiazol-5-yl)phenyl)ethyl)pyrrolidine-2-carboxamide]", "values": [
      {"measurement": "DC50", "setting": "[4]", "value": "< 2.5", "unit": "nM"},
      {"measurement": "Dmax", "setting": "[5]", "value": "> 75", "unit": "%"}
    ]},
    {"smiles": "Cc1ncsc1-c1ccc([C@H](C)NC(=O)[C@@H]2C[C@@H](O)CN2C(=O)[C@@H](c2cc(N3CCC(O)(CN4CCC(O[C@H]5C[C@H](Oc6cc(N7C8CCC7CN(c7cc(-c9ccccc9O)nnc7N)C8)ccn6)C5)CC4)CC3)no2)C(C)C)cc1", "note": "[compound 645, (2S,4R)-1-((2R)-2-(3-(4-((4-((1r,3r)-3-((4-(3-(3-amino-6-(2-hydroxyphenyl)pyridazin-4-yl)-3,8-diazabicyclo[3.2.1]octan-8-yl)pyridin-2-yl)oxy)cyclobutoxy)piperidin-1-yl)methyl)-4-hydroxypiperidin-1-yl)isoxazol-5-yl)-3-methylbutanoyl)-4-hydroxy-N-((S)-1-(4-(4-methylthiazol-5-yl)phenyl)ethyl)pyrrolidine-2-carboxamide]", "values": [
      {"measurement": "DC50", "setting": "[4]", "value": "< 2.5", "unit": "nM"},
      {"measurement": "Dmax", "setting": "[6]", "value": "> 75", "unit": "%"}
    ]},
    {"smiles": "Cc1ncsc1-c1ccc([C@H](C)NC(=O)[C@@H]2C[C@@H](O)CN2C(=O)[C@H](c2cc(OCCCOc3cc(N4C5CCC4CN(c4cc(-c6ccccc6O)nnc4N)C5)ccn3)no2)C(C)C)cc1", "note": "[compound 613, (2S,4R)-1-((2S)-2-(3-(3-((4-(3-(3-amino-6-(2-hydroxyphenyl)pyridazin-4-yl)-3,8-diazabicyclo[3.2.1]octan-8-yl)pyridin-2-yl)oxy)propoxy)isoxazol-5-yl)-3-methylbutanoyl)-4-hydroxy-N-((S)-1-(4-(4-methylthiazol-5-yl)phenyl)ethyl)pyrrolidine-2-carboxamide]", "values": [
      {"measurement": "DC50", "setting": "BRM degradation, SW1573 cells, Table 2D, read-out: *DC50", "value": "> 30", "unit": "nM"}
    ]},
    {"smiles": "Cc1ncsc1-c1ccc(CNC(=O)[C@@H]2C[C@@H](O)CN2C(=O)C(c2cc(CCCOCCOCCn3cc(-c4cc(-c5ccccc5O)nnc4N)cn3)no2)C(C)C)cc1", "note": "(stereo partly drawn) [compound 22, (2S,4R)-1-(2-(3-(3-(2-(2-(4-(3-amino-6-(2-hydroxyphenyl)pyridazin-4-yl)-1H-pyrazol-1-yl)ethoxy)ethoxy)propyl)isoxazol-5-yl)-3-methylbutanoyl)-4-hydroxy-N-(4-(4-methylthiazol-5-yl)benzyl)pyrrolidine-2-carboxamide]", "values": [
      {"measurement": "DC50", "setting": "[4]", "value": "> 30", "unit": "nM"},
      {"measurement": "Dmax", "setting": "[5]", "value": "> 75", "unit": "%"}
    ]},
    {"smiles": "Cc1ncsc1-c1ccc([C@H](C)NC(=O)[C@@H]2C[C@@H](O)CN2C(=O)[C@@H](c2cc(N3CCC4(CCCN(C[C@H]5C[C@H](Oc6cc(N7C8CCC7CN(c7cc(-c9ccccc9O)nnc7N)C8)ccn6)C5)C4)CC3)no2)C(C)C)cc1", "note": "[compound 660, (2S,4R)-1-((2R)-2-(3-(2-(((1r,3R)-3-((4-(3-(3-amino-6-(2-hydroxyphenyl)pyridazin-4-yl)-3,8-diazabicyclo[3.2.1]octan-8-yl)pyridin-2-yl)oxy)cyclobutyl)methyl)-2,9-diazaspiro[5.5]undecan-9-yl)isoxazol-5-yl)-3-methylbutanoyl)-4-hydroxy-N-((S)-1-(4-(4-methylthiazol-5-yl)phenyl)ethyl)pyrrolidine-2-carboxamide]", "values": [
      {"measurement": "DC50", "setting": "[4]", "value": "< 2.5", "unit": "nM"},
      {"measurement": "Dmax", "setting": "[6]", "value": "> 75", "unit": "%"}
    ]},
    {"smiles": "Cc1ncsc1-c1ccc([C@H](C)NC(=O)[C@@H]2C[C@@H](O)CN2C(=O)[C@@H](c2cc(N3CCC(CN4CCC(O[C@H]5C[C@H](Oc6cc(N7C8CCC7CN(c7cc(-c9ccccc9)nnc7N)C8)ccn6)C5)CC4)CC3)no2)C(C)C)cc1", "note": "[compound 605, (2S,4R)-1-((2R)-2-(3-(4-((4-((1r,3r)-3-((4-(3-(3-amino-6-phenylpyridazin-4-yl)-3,8-diazabicyclo[3.2.1]octan-8-yl)pyridin-2-yl)oxy)cyclobutoxy)piperidin-1-yl)methyl)piperidin-1-yl)isoxazol-5-yl)-3-methylbutanoyl)-4-hydroxy-N-((S)-1-(4-(4-methylthiazol-5-yl)phenyl)ethyl)pyrrolidine-2-carboxamide]", "values": [
      {"measurement": "DC50", "setting": "BRM degradation, SW1573 cells, Table 2D", "value": "> 30", "unit": "nM"}
    ]},
    {"smiles": "Cc1ncsc1-c1ccc([C@H](C)NC(=O)[C@@H]2C[C@@H](O)CN2C(=O)[C@@H](c2cc(N3CCN(CC4CCN(C[C@H]5C[C@H](Oc6cc(N7C8CCC7CN(c7cc(-c9ccccc9O)nnc7N)C8)ccn6)C5)CC4)CC3)no2)C(C)C)cn1", "note": "[compound 427, (2S,4R)-1-((2R)-2-(3-(4-((1-(((1r,3r)-3-((4-(3-(3-amino-6-(2-hydroxyphenyl)pyridazin-4-yl)-3,8-diazabicyclo[3.2.1]octan-8-yl)pyridin-2-yl)oxy)cyclobutyl)methyl)piperidin-4-yl)methyl)piperazin-1-yl)isoxazol-5-yl)-3-methylbutanoyl)-4-hydroxy-N-((S)-1-(6-(4-methylthiazol-5-yl)pyridin-3-yl)ethyl)pyrrolidine-2-carboxamide]", "values": [
      {"measurement": "Dmax", "setting": "[3]", "value": "> 75", "unit": "%"},
      {"measurement": "DC50", "setting": "[1]", "value": "< 2.5", "unit": "nM"}
    ]},
    {"smiles": "Cc1ncsc1-c1ccc([C@H](C)NC(=O)[C@@H]2C[C@@H](O)CN2C(=O)[C@H](c2cc(OCCCN3CCN(CCCOc4cc(N5C6CCC5CN(c5cc(-c7ccccc7O)nnc5N)C6)ccn4)CC3)no2)C(C)C)cc1", "note": "[compound 384, (2S,4R)-1-((2S)-2-(3-(3-(4-(3-((4-(3-(3-amino-6-(2-hydroxyphenyl)pyridazin-4-yl)-3,8-diazabicyclo[3.2.1]octan-8-yl)pyridin-2-yl)oxy)propyl)piperazin-1-yl)propoxy)isoxazol-5-yl)-3-methylbutanoyl)-4-hydroxy-N-((S)-1-(4-(4-methylthiazol-5-yl)phenyl)ethyl)pyrrolidine-2-carboxamide]", "values": [
      {"measurement": "Dmax", "setting": "[3]", "value": "> 75", "unit": "%"},
      {"measurement": "DC50", "setting": "[2]", "value": "2.5 to 10", "unit": "nM"}
    ]},
    {"smiles": "Cc1ncsc1-c1ccc([C@H](CCO)NC(=O)[C@@H]2C[C@@H](O)CN2C(=O)[C@@H](c2cc(N3CCC(CN4CCC(O[C@H]5C[C@H](Oc6cc(N7C8CCC7CN(c7cc(-c9ccccc9O)nnc7N)C8)ccn6)C5)CC4)CC3)no2)C(C)C)cc1", "note": "[compound 661, (2S,4R)-1-((2R)-2-(3-(4-((4-((1r,3r)-3-((4-(3-(3-amino-6-(2-hydroxyphenyl)pyridazin-4-yl)-3,8-diazabicyclo[3.2.1]octan-8-yl)pyridin-2-yl)oxy)cyclobutoxy)piperidin-1-yl)methyl)piperidin-1-yl)isoxazol-5-yl)-3-methylbutanoyl)-4-hydroxy-N-((S)-3-hydroxy-1-(4-(4-methylthiazol-5-yl)phenyl)propyl)pyrrolidine-2-carboxamide]", "values": [
      {"measurement": "DC50", "setting": "[4]", "value": "< 2.5", "unit": "nM"},
      {"measurement": "Dmax", "setting": "[6]", "value": "> 75", "unit": "%"}
    ]},
    {"smiles": "Cc1ncsc1-c1ccc([C@H](C)NC(=O)[C@@H]2C[C@@H](O)CN2C(=O)[C@H](c2cc(OCCN3CCC(O[C@H]4C[C@H](Nc5cc(N6C7CCC6CN(c6cc(-c8ccccc8O)nnc6N)C7)ccn5)C4)CC3)no2)C(C)C)cc1", "note": "[compound 492, (2S,4R)-1-((2S)-2-(3-(2-(4-((1r,3S)-3-((4-(3-(3-amino-6-(2-hydroxyphenyl)pyridazin-4-yl)-3,8-diazabicyclo[3.2.1]octan-8-yl)pyridin-2-yl)amino)cyclobutoxy)piperidin-1-yl)ethoxy)isoxazol-5-yl)-3-methylbutanoyl)-4-hydroxy-N-((S)-1-(4-(4-methylthiazol-5-yl)phenyl)ethyl)pyrrolidine-2-carboxamide]", "values": [
      {"measurement": "DC50", "setting": "BRM degradation, read-out: BRM DC50", "value": "> 30", "unit": "nM"}
    ]}
  ]
}
